Assay results as given in publication PMC3302783, “Position of the Third Na^+ Site in the Aspartate Transporter GltPh and the Human Glutamate Transporter, EAAT1” (PLoS ONE, 2012).

Assays:
EAAT1 = biological target: T1, EAAT1 (Homo sapiens, UniProt P43003); experiment: Two-electrode voltage clamp of Xenopus laevis oocytes expressing wild type EAAT1; assay type: cell-based
T1 construct: expressed in transfected cells; host or cells: Xenopus laevis oocytes injected with cRNA
Excerpt: (§1) All chemicals were obtained from Sigma unless otherwise stated. Stage V oocytes were harvested from Xenopus laevis as described previously.
(§2) NMDG^+ was used as a Na^+ substitute to maintain ionic strength of the buffers.
(§3) Substrate responses were fitted by least squares as a function of substrate concentration to I/Imax = [S]/([S]+K 0.5), where I is the current, Imax is the maximal current, K 0.5 is the concentration of substrate that generates half-maximal response, and [S] is the substrate concentration. Na^+ concentration responses were fit to the Hill equation I/Imax = [S]^n/([S]^n+(K 0.5)^n) where n is the Hill coefficient and all other terms are as described above. For ^3H-L-aspartate uptake by GltPh, initial rates were calculated from the linear portion of the curve and all data represent the mean ± s.e.m. of at least 3 experiments.

EAAT1 T130A = biological target: T2, EAAT1 T130A (Homo sapiens, UniProt P43003, T130A); experiment: Two-electrode voltage clamp of Xenopus laevis oocytes expressing EAAT1 T130A; assay type: cell-based
T2 construct: expressed in transfected cells; host or cells: Xenopus laevis oocytes injected with cRNA
T2 sequence (P43003 whole entry T130A): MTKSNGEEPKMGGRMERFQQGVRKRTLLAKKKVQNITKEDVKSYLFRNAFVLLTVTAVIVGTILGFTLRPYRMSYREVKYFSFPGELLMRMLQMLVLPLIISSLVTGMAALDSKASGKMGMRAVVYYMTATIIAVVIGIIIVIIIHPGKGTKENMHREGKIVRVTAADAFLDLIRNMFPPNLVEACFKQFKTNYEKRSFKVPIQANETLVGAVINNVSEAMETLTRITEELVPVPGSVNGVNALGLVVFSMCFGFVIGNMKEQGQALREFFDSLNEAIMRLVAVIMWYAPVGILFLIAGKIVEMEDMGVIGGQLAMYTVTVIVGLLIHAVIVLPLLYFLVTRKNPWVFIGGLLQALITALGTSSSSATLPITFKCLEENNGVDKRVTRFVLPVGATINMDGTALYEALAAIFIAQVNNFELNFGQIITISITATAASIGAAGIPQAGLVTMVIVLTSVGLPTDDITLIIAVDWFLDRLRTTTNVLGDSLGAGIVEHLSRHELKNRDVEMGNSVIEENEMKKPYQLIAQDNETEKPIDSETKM
Excerpt: as §1, §2, §3

EAAT1 T131A = biological target: T3, EAAT1 T131A (Homo sapiens, UniProt P43003, T131A); experiment: Two-electrode voltage clamp of Xenopus laevis oocytes expressing EAAT1 T131A; assay type: cell-based
T3 construct: expressed in transfected cells; host or cells: Xenopus laevis oocytes injected with cRNA
T3 sequence (P43003 whole entry T131A): as the sequence (P43003 whole entry T130A) above, with A130T, T131A counted along it
Excerpt: as §1, §2, §3

wild type GltPh = biological target: T4, wild type GltPh (Pyrococcus horikoshii, UniProt O59010); experiment: ^3H-L-aspartate uptake in proteoliposomes, wild type GltPh; assay type: biochemical
T4 construct: histidine tag (cleaved yes); made in house
T4 sequence (O59010 1-425): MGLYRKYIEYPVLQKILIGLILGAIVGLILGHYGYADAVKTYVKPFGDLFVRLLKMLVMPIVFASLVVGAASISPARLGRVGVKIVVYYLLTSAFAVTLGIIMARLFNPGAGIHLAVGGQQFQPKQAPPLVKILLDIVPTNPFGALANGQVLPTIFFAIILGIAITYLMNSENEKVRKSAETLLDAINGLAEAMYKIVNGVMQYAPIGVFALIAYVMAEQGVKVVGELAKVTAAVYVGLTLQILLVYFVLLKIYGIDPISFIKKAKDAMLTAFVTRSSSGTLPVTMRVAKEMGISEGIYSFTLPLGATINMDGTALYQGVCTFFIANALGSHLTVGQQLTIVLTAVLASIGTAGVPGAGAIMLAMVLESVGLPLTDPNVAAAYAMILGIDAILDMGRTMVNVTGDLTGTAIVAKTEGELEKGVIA
Experimental: (§4) Pure protein was reconstituted into liposomes using a method modified from Gaillard et al., 1996 [37]. Escherichia coli polar lipids and 1-palmitoyl-2-oleoyl-sn-glycero-3-phosphocholine (Avanti Polar Lipids), at a ratio of 3∶1, were mixed, dried under nitrogen, and resuspended in internal buffer (100 mM KCl, 20 mM HEPES pH 7.5 or the appropriate internal buffer as indicated below). The lipid mixture was briefly sonicated using a cylindrical sonicator (Labatory Supplies Co.) and the lipid suspension was frozen in liquid nitrogen and thawed at 45°C several times. Liposomes were formed by extrusion through 400 nm polycarbonate membranes (Avanti Polar Lipids) and were treated with Triton X-100 at a 0.5∶1 (w/w) detergent to lipid ratio prior to the addition of protein at 0.25 µg protein/mg lipid. The protein/lipid mixture was left at room temperature for 30 minutes before detergent was removed using SM2 Biobeads (Biorad). The protein/lipid mixture was incubated, with gentle agitation, with three consecutive batches of the Biobeads (80 mg/ml). Proteoliposomes were concentrated by centrifugation at 150,000 g for 30 minutes in a Beckman Optima TLX centrifuge, resuspended at 100 mg lipid/mL and either used immediately or flash frozen in liquid nitrogen and stored at −80°C.
(§5) ^3H-L-aspartate transport by wild type GltPh and mutant GltPh transporters was assayed using a protocol modified from Gaillard et al., 1996 [37]. Proteoliposomes were loaded with internal buffer (100 mM KCl, 20 mM HEPES pH 7.5) by several freeze/thaw cycles followed by extrusion as described above. The uptake reaction was initiated by diluting the proteoliposomes (100 mg lipid/mL) 133 fold into reaction buffer pre-warmed to 30°C. The reaction buffer contained: 100 mM NaCl, 20 mM HEPES pH 7.5, 1 µM valinomycin and the indicated concentrations of ^3H-L-aspartate. […] The filters were washed once with 2 mL of ice cold quench buffer and assayed for radioactivity using a Trilux beta counter (Perkin Elmer). The Na^+ dependence of ^3H-L-aspartate transport was measured by varying extraliposomal Na^+ from 0.1 to 300 mM Na^+. […] Background levels of uptake were measured by diluting proteoliposomes into internal buffer (100 mM KCl, 20 mM HEPES pH 7.5) containing 1 µM valinomycin and the indicated concentrations of ^3H-L-aspartate.
as §3, with “Na^+ concentration responses were fit to the Hill equation I/Imax = [S]^n/([S]^n+(K 0.5)^n) where n is the Hill coefficient and all other terms are as described above.” left out

GltPh T92A [1] = biological target: T5, GltPh T92A (Pyrococcus horikoshii, UniProt O59010, T92A); experiment: ^3H-L-aspartate uptake in proteoliposomes, GltPh T92A; assay type: biochemical
T5 construct: histidine tag (cleaved yes); made in house
T5 sequence (O59010 whole entry T92A): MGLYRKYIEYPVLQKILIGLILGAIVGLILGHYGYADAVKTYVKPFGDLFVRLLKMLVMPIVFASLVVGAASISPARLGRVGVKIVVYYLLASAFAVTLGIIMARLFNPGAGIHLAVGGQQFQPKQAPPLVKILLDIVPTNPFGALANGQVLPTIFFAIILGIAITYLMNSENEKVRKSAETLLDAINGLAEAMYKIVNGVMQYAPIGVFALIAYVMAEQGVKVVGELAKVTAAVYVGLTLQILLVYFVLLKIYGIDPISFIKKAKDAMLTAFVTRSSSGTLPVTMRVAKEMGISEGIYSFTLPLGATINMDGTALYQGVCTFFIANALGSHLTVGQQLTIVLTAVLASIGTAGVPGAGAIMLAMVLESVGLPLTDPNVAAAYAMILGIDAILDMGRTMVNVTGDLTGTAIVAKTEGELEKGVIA
Experimental: as §4, §5
as §3, with “Na^+ concentration responses were fit to the Hill equation I/Imax = [S]^n/([S]^n+(K 0.5)^n) where n is the Hill coefficient and all other terms are as described above.” left out

GltPh S93A [2] = biological target: T6, GltPh S93A (Pyrococcus horikoshii, UniProt O59010, S93A); experiment: ^3H-L-aspartate uptake in proteoliposomes, GltPh S93A; assay type: biochemical
T6 construct: histidine tag (cleaved yes); made in house
T6 sequence (O59010 whole entry S93A): as the sequence (O59010 whole entry T92A) above, with A92T, S93A counted along it
Experimental: as §4, §5
as §3, with “Na^+ concentration responses were fit to the Hill equation I/Imax = [S]^n/([S]^n+(K 0.5)^n) where n is the Hill coefficient and all other terms are as described above.” left out

GltPh T92A [3] = biological target: T5, GltPh T92A; experiment: Binding free energy of Na^+ ions by thermodynamic integration (MD), GltPh T92A; conditions: GltPh T92A versus GltPh; from TI calculations
Experimental: (§6) The simulation systems are prepared using the software VMD [28]. The crystal structure of the GltPh trimer is embedded in a 1-palmitoyl-2-oleoyl-phosphatidylethanolamine (POPE) phospholipid bilayer and solvated in a box of water molecules with physiological concentration of NaCl. The final system consists of the trimer, 239 lipid molecules, 15688 water molecules and 35 Na^+ and 35 Cl^− ions. GltPh has a net charge of +6e, so to keep the system neutral 6 Cl^− ions are added in the apo system (more Cl^− ions are added when the bound Na^+ ions are included to preserve neutrality). […]
(§7) The binding free energies of Na^+ ions are calculated using the expression, ΔGb = ΔGint+ΔGtr , where the first term gives the free energy difference for the interactions of the ion in the binding site and bulk (i.e. translocation energy) and the second term measures the free energy loss due to reduction in translational entropy upon binding. […] The interaction energy is calculated using both the free energy perturbation (FEP) and the thermodynamic integration (TI) methods, [35]. […] Otherwise the binding free energy of the ion is determined from the average of the forward and backward calculations. […]

GltPh S93A [4] = biological target: T6, GltPh S93A; experiment: Binding free energy of Na^+ ions by thermodynamic integration (MD), GltPh S93A; conditions: GltPh S93A versus GltPh; from TI calculations
Experimental: as §6, §7

GltPh = system: GltPh; design: method as in PMID 17230192, PMID 19380583; conditions: initial functional studies of GltPh; ref [9], [11]; cited from earlier work
GltPh N310A = biological target: T7, GltPh N310A (Pyrococcus horikoshii, UniProt O59010, N310A); experiment: ^3H-L-aspartate uptake in proteoliposomes, GltPh N310A; assay type: biochemical; conditions: 100 nM ^3H-L-aspartate, 100 mM NaCl
T7 construct: histidine tag (cleaved yes); made in house
T7 sequence (O59010 whole entry N310A): as the sequence (O59010 whole entry T92A) above, with A92T, N310A counted along it
Experimental: (§8) Pure protein was reconstituted into liposomes using a method modified from Gaillard et al., 1996 [37]. Escherichia coli polar lipids and 1-palmitoyl-2-oleoyl-sn-glycero-3-phosphocholine (Avanti Polar Lipids), at a ratio of 3∶1, were mixed, dried under nitrogen, and resuspended in internal buffer (100 mM KCl, 20 mM HEPES pH 7.5 or the appropriate internal buffer as indicated below). The lipid mixture was briefly sonicated using a cylindrical sonicator (Labatory Supplies Co.) and the lipid suspension was frozen in liquid nitrogen and thawed at 45°C several times. […]
(§9) ^3H-L-aspartate transport by wild type GltPh and mutant GltPh transporters was assayed using a protocol modified from Gaillard et al., 1996 [37]. […] The filters were washed once with 2 mL of ice cold quench buffer and assayed for radioactivity using a Trilux beta counter (Perkin Elmer). The Na^+ dependence of ^3H-L-aspartate transport was measured by varying extraliposomal Na^+ from 0.1 to 300 mM Na^+. […] Background levels of uptake were measured by diluting proteoliposomes into internal buffer (100 mM KCl, 20 mM HEPES pH 7.5) containing 1 µM valinomycin and the indicated concentrations of ^3H-L-aspartate. […]

GltPh D312A = biological target: T8, GltPh D312A (Pyrococcus horikoshii, UniProt O59010, D312A); experiment: ^3H-L-aspartate uptake in proteoliposomes, GltPh D312A; assay type: biochemical; conditions: 100 nM ^3H-L-aspartate, 100 mM NaCl
T8 construct: histidine tag (cleaved yes); made in house
T8 sequence (O59010 whole entry D312A): as the sequence (O59010 whole entry T92A) above, with A92T, D312A counted along it
Experimental: as §8, §9

[5] = 100 µM L-glutamate, oocytes clamped at −60 mV
[6] = 100 nM ^3H-L-aspartate, Na^+ 0.1 to 300 mM
[7] = 100 mM Na^+, saturating substrate concentrations
[8] = ^3H-L-aspartate concentration-dependent transport, 100 mM NaCl

T1 sequence (P43003 whole entry): as the sequence (P43003 whole entry T130A) above, with A130T counted along it

In the case of `N[C@@H](CCC(=O)O)C(=O)O` [L-glutamate], the “current elicited by L-glutamate” value (EAAT1; [5]) is reported as 395±20 nA, the “K 0.5 for L-glutamate transport” value (EAAT1; oocytes clamped at −60 mV) is reported as 15 ± 1 µM and the “current elicited by L-glutamate” value (EAAT1 T130A; [5]) is reported as 21±2 nA. For the same compound, the “K 0.5 for L-glutamate transport” value (EAAT1 T130A; oocytes clamped at −60 mV) was 87 ± 3 µM, the “current elicited by L-glutamate” value (EAAT1 T131A; [5]) was 25±2 nA and the “K 0.5 for L-glutamate transport” value (EAAT1 T131A; oocytes clamped at −60 mV) was 124 ± 11 µM.
With `[Na+]` [Na^+] the “Hill coefficient of Na^+ dependence of aspartate transport” value (wild type GltPh; 100 nM ^3H-L-aspartate) was 2.3±0.5, the “K 0.5 for Na^+ dependence of aspartate transport” value (wild type GltPh; [6]) was 3.9 ± 0.4 mM and the “Hill coefficient of Na^+ dependence of aspartate transport” value (GltPh T92A [1]; 100 nM ^3H-L-aspartate) was 2.1±0.2. The “K 0.5 for Na^+ dependence of aspartate transport” value (GltPh T92A [1]; [6]) was 19 ± 1 mM, the “Hill coefficient of Na^+ dependence of aspartate transport” value (GltPh S93A [2]; 500 nM ^3H-L-aspartate) was 1.9±0.2 and the “K 0.5 for Na^+ dependence of aspartate transport” value (GltPh S93A [2]; 500 nM ^3H-L-aspartate, Na^+ 0.1 to 300 mM) was 44 ± 2 mM. The “Hill coefficient of Na^+ dependence of L-glutamate transport” value (EAAT1; 300 µM L-glutamate) was 2.8±0.4, the “K 0.5 for Na^+ dependence of L-glutamate transport” value (EAAT1; 300 µM L-glutamate, Na^+ 1 to 150 mM) was 28 ± 4 mM and the “Na^+ dependence of L-glutamate transport: saturation at highest Na^+ concentration” value (EAAT1 T130A; 1 mM L-glutamate, 150 mM Na^+) was “not saturating”. The “Na^+ dependence of L-glutamate transport: saturation at highest Na^+ concentration” value (EAAT1 T131A; 1 mM L-glutamate, 150 mM Na^+) was “not saturating”, the “reduction of the binding free energy of Na3 by the mutation” value (GltPh T92A [3]) was 7.5 kcal/mol and the “reduction of the binding free energy of Na3 by the mutation” value (GltPh S93A [4]) was 5.9 kcal/mol. For the same compound, the “Hill coefficient (Na^+ ions co-transported with substrate)” value (GltPh) was > 2.
With `N[C@@H](CC(=O)O)C(=O)O` [aspartate] the “maximal velocity of ^3H-L-aspartate transport” value (from here on “maximal velocity”) (wild type GltPh; [7]) was 7.5±0.5 nmol/mg protein/min, the “K 0.5 for aspartate transport” value (wild type GltPh; [8]) was 100 ± 10 nM and the “maximal velocity” value (GltPh T92A [1]; [7]) was 42±1 nmol/mg protein/min. The “K 0.5 for aspartate transport” value (GltPh T92A [1]; [8]) was 61 ± 10 nM, the “maximal velocity” value (GltPh S93A [2]; [7]) was 58±3 nmol/mg protein/min and the “K 0.5 for aspartate transport” value (GltPh S93A [2]; [8]) was 370 ± 60 nM. The “^3H-L-aspartate uptake versus background” value (GltPh N310A) was “did not exhibit ^3H-L-aspartate uptake over background levels” and the “^3H-L-aspartate uptake versus background” value (GltPh D312A) was “did not exhibit ^3H-L-aspartate uptake over background levels”.
